Each structure is given as a SMILES string.

In assay [1] the target is Substance-P receptor (Homo sapiens, UniProt P25103). It is filed as cell membranes, CHO, Membrane. The note with it: cho. Note: in other assays of this panel Not Active means under 50% inhibition at 10 µM.
Assay [2] addresses T1, Thromboxane-A synthase (Homo sapiens, UniProt P24557).
T1 sequence (P24557 whole entry): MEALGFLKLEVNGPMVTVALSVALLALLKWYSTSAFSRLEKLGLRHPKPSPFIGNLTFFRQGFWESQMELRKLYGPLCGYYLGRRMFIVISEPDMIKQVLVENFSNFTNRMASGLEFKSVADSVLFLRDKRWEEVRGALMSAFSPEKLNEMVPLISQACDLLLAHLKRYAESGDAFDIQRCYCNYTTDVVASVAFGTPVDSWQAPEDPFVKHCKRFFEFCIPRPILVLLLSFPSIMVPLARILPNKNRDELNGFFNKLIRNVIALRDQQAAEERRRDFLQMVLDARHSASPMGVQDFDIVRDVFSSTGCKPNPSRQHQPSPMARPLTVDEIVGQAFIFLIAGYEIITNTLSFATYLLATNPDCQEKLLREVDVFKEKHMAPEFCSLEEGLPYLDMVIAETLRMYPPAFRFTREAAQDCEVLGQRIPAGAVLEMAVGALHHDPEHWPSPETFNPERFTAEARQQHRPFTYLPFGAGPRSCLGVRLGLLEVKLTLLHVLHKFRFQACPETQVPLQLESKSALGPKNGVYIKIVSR
The experiment in a line: biochemical. The class given is tissue-based, Platelet. Particulars: platelet.

Assay [3] is described as follows: DRUGMATRIX: Interleukin IL-1 radioligand binding (ligand: [125I] interleukin 1beta). It is filed as cell membranes, Membrane. Particulars: nih3t3; Not Active = under 50% inhibition at 10 µM.
The nature of assay [4]: DRUGMATRIX: Leukotriene, BLT (LTB4) radioligand binding (ligand: [3H]LTB4). It is filed as cell membranes, Membrane. Particulars: u-937; Not Active = under 50% inhibition at 10 µM.
Assay [5] addresses T2, Muscarinic acetylcholine receptor M2 (Homo sapiens, UniProt P08172).
T2 sequence (P08172 whole entry): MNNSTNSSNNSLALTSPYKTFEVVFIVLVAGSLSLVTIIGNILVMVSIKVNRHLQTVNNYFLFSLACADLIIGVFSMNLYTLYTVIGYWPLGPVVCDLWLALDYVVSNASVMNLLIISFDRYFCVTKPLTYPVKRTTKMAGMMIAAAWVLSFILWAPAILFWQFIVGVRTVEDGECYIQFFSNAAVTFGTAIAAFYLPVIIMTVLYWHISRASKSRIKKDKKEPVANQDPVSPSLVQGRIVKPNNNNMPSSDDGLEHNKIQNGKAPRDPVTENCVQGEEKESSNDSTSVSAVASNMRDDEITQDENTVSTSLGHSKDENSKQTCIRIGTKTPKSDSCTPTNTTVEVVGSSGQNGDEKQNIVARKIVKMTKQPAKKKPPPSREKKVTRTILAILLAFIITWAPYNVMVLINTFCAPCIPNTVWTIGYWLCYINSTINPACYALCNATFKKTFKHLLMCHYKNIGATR
The class given is cell membranes, CHO-K1, Membrane. Particulars: cho-k1.

In assay [6] the target is Protein phosphatase 3 catalytic subunit alpha (Homo sapiens, UniProt Q08209). More on the design: species or system Escherichia coli.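 Note: inhibition of calcineurin (PP2B) enzyme activity, measured with DiFMUP as the substrate; in other assays of this panel Not Active means under 50% inhibition at 10 µM.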
The target of assay [7] is T3, 5-hydroxytryptamine receptor 1A (Rattus norvegicus, UniProt P19327). Note: in other assays of this panel Not Active means under 50% inhibition at 10 µM.
T3 sequence (P19327 whole entry): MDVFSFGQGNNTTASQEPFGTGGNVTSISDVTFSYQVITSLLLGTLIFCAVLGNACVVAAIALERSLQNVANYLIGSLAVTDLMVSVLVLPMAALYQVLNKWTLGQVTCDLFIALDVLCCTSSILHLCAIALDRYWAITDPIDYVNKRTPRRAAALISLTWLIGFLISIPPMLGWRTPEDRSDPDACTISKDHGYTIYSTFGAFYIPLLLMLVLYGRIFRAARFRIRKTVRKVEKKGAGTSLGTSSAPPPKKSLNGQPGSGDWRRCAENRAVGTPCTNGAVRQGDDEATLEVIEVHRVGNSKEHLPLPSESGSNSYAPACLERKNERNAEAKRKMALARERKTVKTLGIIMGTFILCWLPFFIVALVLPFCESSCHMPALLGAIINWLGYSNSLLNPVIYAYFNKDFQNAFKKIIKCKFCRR
The class given is cell membranes, CHO-K1, Membrane.

Chain of Substance-P receptor (P25103 whole entry): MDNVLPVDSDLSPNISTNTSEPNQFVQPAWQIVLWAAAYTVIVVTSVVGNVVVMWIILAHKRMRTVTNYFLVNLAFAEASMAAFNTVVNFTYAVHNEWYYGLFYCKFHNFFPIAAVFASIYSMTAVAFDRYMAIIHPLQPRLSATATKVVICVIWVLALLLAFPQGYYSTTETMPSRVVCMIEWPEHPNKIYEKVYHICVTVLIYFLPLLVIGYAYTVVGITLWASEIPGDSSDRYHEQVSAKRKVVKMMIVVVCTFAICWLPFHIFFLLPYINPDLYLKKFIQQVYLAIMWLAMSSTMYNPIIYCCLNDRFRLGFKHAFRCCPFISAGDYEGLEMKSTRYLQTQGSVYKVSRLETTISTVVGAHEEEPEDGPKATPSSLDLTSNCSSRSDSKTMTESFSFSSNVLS

`CC(=O)[C@@]1(O)CC[C@H]2[C@@H]3CCC4=CC(=O)CC[C@]4(C)[C@H]3CC[C@@]21C` [HYDROXYPROGESTERONE]: the half-inhibitory concentration (IC50) entry in assay [1], in assay [2], in assay [3], in assay [4], in assay [5] and in assay [6] was “Not Active” each time. The IC50 result in assay [7] (cho-k1) is “Not Active”. For the same molecule, the inhibitory constant (Ki) entry in assay [3] and in assay [4] was “Not Active” in each case.

`COC1=C(OC)C(=O)C(CCCCCCCCCCO)=C(C)C1=O` [IDEBENONE]: the concentration for half-maximal inhibition (IC50) entry in assay [1], in assay [2], in assay [3], in assay [4], in assay [5] and in assay [6] was “Not Active” each time. Besides, the IC50 entry in assay [7] (cho-k1) is “Not Active”. In addition, the inhibition constant Ki result in assay [3] and in assay [4] was “Not Active” throughout.

Regarding `CC(C)NNC(=O)c1ccncc1` [IPRONIAZID], the half-maximal inhibitory concentration (IC50) entry in assay [1], in assay [2], in assay [3], in assay [4], in assay [5] and in assay [6] was “Not Active” in each case. Besides, the IC50 result in assay [7] (cho-k1) was “Not Active”. Also, the Ki entry in assay [3] and in assay [4] was “Not Active” each time.

On to `Cc1c(OCC(F)(F)F)ccnc1C[S+]([O-])c1nc2ccccc2[nH]1` (stereo not given) [LANSOPRAZOLE], for which the IC50 entry in assay [1], in assay [2], in assay [3], in assay [4], in assay [5] and in assay [6] was “Not Active” in each case. In assay [7] (cho-k1), the 50% inhibitory concentration (IC50) entry is “Not Active”. Moreover, the Ki entry in assay [3] and in assay [4] was “Not Active” throughout.

For the molecule `O=c1cc(N2CCOCC2)oc2c(-c3ccccc3)cccc12` [LY-294002], the IC50 entry in assay [1], in assay [2], in assay [3], in assay [4], in assay [5] and in assay [6] was “Not Active” each time. Further, the 50% inhibitory concentration (IC50) entry in assay [7] (cho-k1) was “Not Active”. Moreover, the Ki entry in assay [3] and in assay [4] was “Not Active” each time.

For the molecule `COc1ccc2[nH]cc(CCNC(C)=O)c2c1` [MELATONIN], the IC50 entry in assay [1], in assay [2], in assay [3], in assay [4], in assay [5] and in assay [6] was “Not Active” each time. Besides, the IC50 entry in assay [7] (cho-k1) was “Not Active”. Further, the inhibitory constant (Ki) result in assay [3] and in assay [4] was “Not Active” each time.

Regarding `NC(=O)C[S+]([O-])C(c1ccccc1)c1ccccc1` (stereo not given) [MODAFINIL], the IC50 result in assay [1], in assay [2], in assay [3], in assay [4], in assay [5] and in assay [6] was “Not Active” in each case. Also, the IC50 entry in assay [7] (cho-k1) was “Not Active”. Moreover, the Ki result in assay [3] and in assay [4] was “Not Active” throughout.

For the molecule `CCN(CC)CCOCCC1=CCC2CC1C2(C)C` (stereo not given) [MYRTECAINE], the IC50 result in assay [1], in assay [2], in assay [3], in assay [4], in assay [5] and in assay [6] was “Not Active” throughout. Besides, the IC50 entry in assay [7] (cho-k1) is “Not Active”. Also, the inhibition constant (Ki) entry in assay [3] and in assay [4] was “Not Active” throughout.

As to `O=C(O)c1cccnc1Nc1cccc(C(F)(F)F)c1` [NIFLUMIC ACID], the IC50 entry in assay [1], in assay [2], in assay [3], in assay [4], in assay [5] and in assay [6] was “Not Active” each time. In assay [7] (cho-k1), the concentration for half-maximal inhibition (IC50) result is “Not Active”. Besides, the Ki result in assay [3] and in assay [4] was “Not Active” throughout.

Take `O=C(N/N=C/c1ccc([N+](=O)[O-])o1)c1cc([N+](=O)[O-])cc([N+](=O)[O-])c1O` [NIFURSOL]: the half-maximal inhibitory concentration (IC50) result in assay [1], in assay [2], in assay [3], in assay [4], in assay [5] and in assay [6] was “Not Active” in each case. Also, the 50% inhibitory concentration (IC50) result in assay [7] (cho-k1) is “Not Active”. Also, the inhibition constant (Ki) result in assay [3] and in assay [4] was “Not Active” throughout.

For `COC(=O)Nc1nc2ccc(C(=O)c3cccs3)cc2[nH]1` [NOCODAZOLE], the 50% inhibitory concentration (IC50) entry in assay [1], in assay [2], in assay [3], in assay [4], in assay [5] and in assay [6] was “Not Active” in each case. Further, in assay [7] (cho-k1), the IC50 entry is listed as “Not Active”. Moreover, the Ki result in assay [3] and in assay [4] was “Not Active” in each case.

In the case of `C#CC1(O)CC[C@H]2[C@@H]3CCC4=CC(=O)CC[C@@H]4[C@H]3CC[C@@]21CC` (stereo not given in full) [NORGESTREL], the half-inhibitory concentration (IC50) result in assay [1], in assay [2], in assay [3], in assay [4], in assay [5] and in assay [6] was “Not Active” throughout. Also, in assay [7] (cho-k1), the IC50 result is listed as “Not Active”. Further, the Ki result in assay [3] and in assay [4] was “Not Active” throughout.

Turning to `COC(=O)Nc1nc2ccc([S+]([O-])c3ccccc3)cc2[nH]1` (stereo not given) [OXFENDAZOLE], the IC50 result in assay [1], in assay [2], in assay [3], in assay [4], in assay [5] and in assay [6] was “Not Active” each time. The 50% inhibitory concentration (IC50) entry in assay [7] (cho-k1) is “Not Active”. The Ki result in assay [3] and in assay [4] was “Not Active” in each case.

In the case of `CC(=O)O[C@H]1C(=O)[C@@]2(C)[C@H]([C@H](OC(=O)c3ccccc3)[C@]3(O)C[C@H](OC(=O)[C@H](O)[C@@H](NC(=O)c4ccccc4)c4ccccc4)C(C)=C1C3(C)C)[C@]1(OC(C)=O)CO[C@@H]1C[C@@H]2O` [PACLITAXEL], the 50% inhibitory concentration (IC50) entry in assay [1], in assay [2], in assay [3], in assay [4], in assay [5] and in assay [6] was “Not Active” each time. Besides, the IC50 entry in assay [7] (cho-k1) is “Not Active”. Moreover, the Ki entry in assay [3] and in assay [4] was “Not Active” throughout.

Regarding `C[n+]1ccc(-c2cc[n+](C)cc2)cc1.[Cl-].[Cl-]` [PARAQUAT DICHLORIDE], the IC50 entry in assay [1], in assay [2], in assay [3], in assay [4], in assay [5] and in assay [6] was “Not Active” throughout. Moreover, the IC50 result in assay [7] (cho-k1) is given as “Not Active”. The Ki entry in assay [3] and in assay [4] was “Not Active” throughout.

Regarding `CC(C)NCC(O)COc1cccc2[nH]ccc12` (stereo not given) [PINDOLOL], the IC50 result in assay [1], in assay [2], in assay [3], in assay [4], in assay [5] and in assay [6] was “Not Active” each time. Besides, the half-inhibitory concentration (IC50) in assay [7] (read-out: IC50) was 48 nM. The values for the Ki result in assay [3], in assay [4] and in assay [7] (read-out: Ki) were “Not Active”, “Not Active” and 27 nM, respectively.

As a reminder, the IC50 is the concentration that inhibits the measured activity by half. For orientation: Ki means the dissociation constant of the complex between target and ligand, obtained from inhibition or displacement.

Source of the values: ChEMBL document CHEMBL1909046, “DrugMatrix in vitro pharmacology data”.
